Laboratory results published in patent US11147796B2, “Agent for preventing or ameliorating hearing impairment” (Tohoku University, priority 2017, dated 2021).

Key:
inner hair cells = assay: Survival rate of inner hair cells in cultured inner ear with cisplatin; type: cell-based, C57BL/6J mouse; details: 48 hours
Protocol: (§1) In the following Examples 2, 3, and 5, “m.1555A>G mutant” cells were obtained by skin reproductive to a patient having “m.1555A>G mutation” to obtain dermal fibroblasts, then 10% Primary culture was carried out in DMEM (low glucose) culture solution (manufactured by Nacalai Tesque, Inc) containing FBS (Fetal bovine serum) under the condition of 5% CO2/20% O2, at 37° C. and isolated. In the following Examples 4 and 5, the inner ear culture was carried out in DMEM (high glucose) culture medium containing 10% FBS (Fetal bovine serum) under the condition of 5% CO2/20% O2, at 37° C.
[1] The inner ear of C57BL/6J mouse (hereinafter referred to as “P3 mouse”) on the third day after birth was isolated and cultured in a culture solution for 24 hours.
[2] […] Thereafter, washing with TBS (TBST) solution containing 0.3% Triton X-100 for 5 minutes was repeated twice, followed by taking photograph with a fluorescence microscope (BZ-9000, manufactured by Keyence) and observed using BZ-H1 software (manufactured by Keyence). From the obtained image, the number of cells and the number of damaged cells, each of which has a shape of 200 μm each corresponding to each part of the apex turn, the media turn, and the basilar turn, were measured and 3 parts of the cochlea (apex, media, basilar) were calculated from the survival rate (%) of the outer hair cells and the inner hair cells. […]

“m.1555A>G mutant” cells = assay: Amount of ATP production in cells derived from hearing loss patients; type: cell-based, human; details: compound 10 μM, 12 hours
Protocol: as §1
[1] Three thousand “m.1555A>G mutant” cells were seeded per well in a 96-well cell culture plate and cultured for 24 hours.
[2] Compound #5 synthesized in Example 1 was mixed into the culture solution to be 10 μM and cultured for 12 hours (compound-treated group). As a control, “m.1555A>G mutant” cells were cultured in a culture medium in the absence of compound #5 (control group) or in a culture medium containing 0.01% DMSO (DMSO-treated group) for 12 hours. The concentration of ATP in the culture solution was measured with “cellular” ATP assay reagent (manufactured by Toyo Binet).

inner ear cells = assay: Amount of ATP production in cultured inner ear; type: cell-based, mouse; details: compound 10 μM; 3 hour results
Protocol: as §1
[1] The inner ear of P3 mice was isolated and cultured in culture solution for 24 hours.
[2] The compound #5 synthesized in Example 1 was mixed in the culture solution to be 10 μM and cultured for various times (3 hours, 6 hours, and 12 hours). […] [3] The concentration of ATP in the culture solution was measured with “cellular” ATP assay reagent (manufactured by Toyo Binet).

Ndufs 4 KO mice = assay: Hearing ability by auditory brainstem response (ABR) in Ndufs 4 KO mice; type: in vivo, mouse; details: vs non-administration KO
Protocol: Ndufs 4 KO mice (mutant mice due to the substitution of the second exon of the Ndufs 4 gene with Neo sandwiched between loxP sequences) were purchased from Jacson Laboratory. The genetic background of the mouse was C57BL/6, and 60 days old (body weight 10 to 13 g) was used. Compound #5 (1 mg/kg body weight/day) synthesized in Example 1 was orally administered to Ndufs 4 KO mice (administration group of Ndufs 4 KO mice, n=5), between 28 and 60 days of age, at 60 days of age, the hearing ability of the compound #5 administration group was evaluated by auditory brainstem response (ABR). As a control, the hearing ability of Nudfs 4 KO mice not received compound #5 (non-administration group of Ndufs 4 KO mice, n=4), wild type mice not received compound #5 (non-administration group of wild type mice, n=3) and Ndufs 4 hetero KO mice not received compound N #5 (non-administration group of Ndufs 4 hetero KO mice, n=4) was assessed by ABR at 60 days of age. In measuring the hearing ability, a mixture of ketamine (100 mg/kg body weight) and xylazine (20 mg/kg body weight) were anesthetized by intraperitoneal injection of mice. ABR was also analyzed using TDT System 3 workstation and BioSigRP software (Tucker-Davis Technologies). The averaging (1000 times) of the evoked response to the tone burst sound of each frequency (4, 8, 12, 16, and 32 kHz) was recorded. Stimuli sounds were presented at 5 dB intervals from each frequency, 100 dB SPL (Sound Pressure Level) to 10 dB SPL. […]
Using Ndufs 4 KO mice and their littermate wild type mice (littermate wild type mice), the hearing power of littermate wild type mice not received compound #5 (non-administration group of wild-type mice, n=5), Ndufs 4 KO mice not received compound #5 (non-administration group of Ndufs 4 KO mice, n=5) and Ndufs 4 KO mice received compound #5 (administration group of Ndufs 4 KO mice, n=5) were evaluated by ABR at 28 days of age and 60 days of age according to the method described in the item “6-1” of Example 6. […]

In the case of `O=C(CC(C(=O)O)c1c[nH]c2ccccc12)c1ccc(F)cc1F` (stereo not shown) [compound #5, 4-(2,4-Difluorophenyl)-2-(1H-indol-3-yl)-4-oxo-butanoic Acid], the “survival rate of the inner hair cells” value (inner hair cells; cisplatin 10 μM, compound 0, 1, 5, 10, 50 μM) is reported as “almost no change in survival rate”, the “survival rate of the inner hair cells” value (inner hair cells; compound 10 μM, cisplatin 0, 5, 7.5, 10, 15, 20 μM, vs DMSO-treated group) is reported as “hardly any difference” and the “amount of ATP production” value (“m.1555A>G mutant” cells) is reported as “increases”. For the same compound, the “amount of ATP production” value (inner ear cells) was “increases”, the ABR threshold (Ndufs 4 KO mice; Example 6, 1 mg/kg body weight/day oral, 28 to 60 days of age, measured at 60 days) was “lower than the ABR threshold in the non-administration group of Ndufs 4 KO mice” and the ABR threshold value (Ndufs 4 KO mice; Example 7, 1 mg/kg body weight/day oral, at 60 days of age) was “decreased”. The ABR threshold (Ndufs 4 KO mice; Example 8, 0.3 mg/kg body weight/day oral) was “decreased”.
